Results as given in patent US12606528B2, “Methods and materials for inhibiting NF-kB activity” (University of Pittsburgh - Of the Commonwealth System of …, priority 2019, dated 2026).
Like-named read-outs stand apart in the source and are kept apart here.

What was measured:
[1] = tested on: NF-κB; experiment: NF-κB assay: THP1-NF-κB-LUC cells, LPS-stimulated secreted luciferase; type: cell-based; details: THP1-NF-κB-LUC cells, read-out: IC50 (NF-κB assay)
Outline: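 THP1-NF-κB-LUC cells (25k/well) were pretreated with compounds for 2 h, then stimulated with LPS (10 ng/mL) for 18 h. Secreted luciferase was measured and normalized to vehicle, and IC50 was fitted from the concentration series.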

[2] = tested on: TNF release; experiment: TNF assay: TNF release from LPS-stimulated human PBMCs (TNF ELISA); type: cell-based; details: PBMC, read-out: IC50 (TNF assay)
Outline: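 Human PBMCs at 10k/well pretreated with compound dilutions 2 h, then stimulated with LPS (10 ng/mL) for 18 h. TNF in supernatants quantified by ELISA; IC50 for inhibition of TNF release fitted from concentration–response.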

[3] = LPS-stimulated human PBMCs, TNF ELISA
[4] = compounds 2 hours before LPS (10 ng/mL) for 18 hours, secreted luciferase
[5] = human PBMCs, compounds 2 hours before LPS (10 ng/ml) for 18 hours, supernatant TNF ELISA

Row | SMILES | IC50 ([1]; LPS-stimulated) [µM] | IC50 [2, 3] [µM] | IC50 [1, 4] [µM] | IC50 [2, 5] [µM]
1 | Cc1ccc(S(=O)(=O)c2nc(-c3ccccc3)oc2S(=O)(=O)C2CCCCC2)cc1 [BC19267] | < 0.1 | 0.1 to 1 | – | –
2 | Cc1ccc(NS(=O)(=O)c2cc3c(cc2Cl)NC(=O)C(C)O3)cc1 (stereo not shown) [BC19717] | – | – | < 0.1 | > 10
3 | CNC(=O)N1CC(=O)Nc2ccc(S(=O)(=O)N3CCCC3)cc21 [BC19183] | > 10 | > 10 | – | –
4 | C#CC(=O)Nc1ccc2nc(-c3ccc(F)cc3)c(-c3ccc(F)cc3)nc2c1 [BC19397] | < 0.1 | 0.1 to 1 | – | –
5 | O=C1CCOc2cc(S(=O)(=O)Nc3cccc(Cl)c3)c(Br)cc2N1 [BC19655] | > 10 | > 10 | – | –
6 | CC(C)CC1Oc2cc(S(=O)(=O)Nc3ccccc3)c(Br)cc2NC1=O (stereo not shown) [BC19762] | – | – | 0.1 to 1 | > 10
7 | CCc1cccc(NS(=O)(=O)c2cc3c(cc2Br)NC(=O)CO3)c1 [BC19167] | – | – | 0.1 to 1 | > 10
8 | Fc1ccc(-c2nc3cc(-c4nnn[nH]4)ccc3nc2C(F)(F)F)cc1 [BC19113] | > 10 | > 10 | – | –
9 | CCNS(=O)(=O)c1cc2c(cc1Cl)NC(=O)C(C)O2 (stereo not shown) [BC19209] | – | – | 1 to 10 | > 10
10 | Cn1nnnc1-c1ccc2nc(C(F)(F)F)c(-c3ccc(F)cc3)nc2c1 [BC19112] | > 10 | > 10 | – | –
11 | O=C1NCCOc2c1cc(Br)cc2S(=O)(=O)Nc1ccc(F)cc1F [BC19608] | 1 to 10 | > 10 | – | –
12 | C[S+]([O-])c1sc(-c2ccc(F)cc2)nc1S(=O)(=O)c1ccc(Cl)cc1 (stereo not shown) [BC19413] | > 10 | 1 to 10 | – | –
13 | CS(=O)(=O)c1cc2c(c(S(=O)(=O)Nc3ccc(C#N)cc3)c1)OCC(=O)N2 [BC19431] | – | – | < 0.1 | > 10
14 | CCc1ccc(NS(=O)(=O)c2cc(S(C)(=O)=O)cc3c2OCC(=O)N3)cc1 [BC19484] | – | – | < 0.1 | > 10
15 | Cc1ccc([S+]([O-])c2cnccc2O)c(C)c1 (stereo not shown) [BC19458] | – | – | > 10 | > 10
16 | CCC[S+]([O-])c1sc(-c2cccnc2)nc1S(=O)(=O)c1ccc(Cl)cc1 (stereo not shown) [BC19724] | 1 to 10 | 1 to 10 | – | –
17 | Fc1ccc(-c2nc3cccnc3nc2-c2ccc(F)cc2)cc1 [BC19403] | 0.1 to 1 | > 10 | – | –
18 | COc1ccc(NS(=O)(=O)c2cc3c(cc2Cl)NC(=O)C(C)O3)cc1 (stereo not shown) [BC19706] | – | – | < 0.1 | > 10
19 | O=C(Nc1ccc2nc(-c3ccc(F)cc3)c(-c3ccc(F)cc3)nc2c1)C1CCNCC1 [BC19251] | < 0.1 | 1 to 10 | – | –
20 | CC1Oc2cc(S(=O)(=O)NCCc3ccc(OC(F)(F)F)cc3)c(Br)cc2NC1=O (stereo not shown) [BC19359] | – | – | > 10 | > 10
21 | Cc1ccc(Cl)cc1NC(=O)CS(=O)(=O)c1[nH]c(-c2ccccc2)nc1S(=O)(=O)c1ccccc1 [BC19335] | > 10 | > 10 | – | –
22 | CC(C)[S+]([O-])c1sc(-c2cccc(F)c2)nc1S(=O)(=O)c1ccc(F)cc1 (stereo not shown) [BC19591] | 1 to 10 | 1 to 10 | – | –
23 | Cc1cnc(-c2ccc3nc(C(F)(F)F)c(-c4ccc(F)cc4)nc3c2)o1 [BC19114] | > 10 | > 10 | – | –
24 | O=S(=O)(c1cccc(F)c1)c1nc(-c2ccccc2)oc1[S+]([O-])C1CCCCC1 (stereo not shown) [BC19327] | 1 to 10 | 1 to 10 | – | –
25 | CC(C)CS(=O)(=O)c1sc(-c2ccccc2F)nc1S(=O)(=O)c1ccc(Cl)cc1 [BC19631] | 1 to 10 | > 10 | – | –
26 | O=S(=O)(NC1CC1)c1ccc2nc(-c3ccc(F)cc3)c(-c3ccc(F)cc3)nc2c1 [BC19505] | 0.1 to 1 | > 10 | – | –
27 | COc1ccc(NS(=O)(=O)c2cc(Br)cc3c2OCCNC3=O)cc1Cl [BC19614] | > 10 | > 10 | – | –
28 | CCC1Oc2cc(S(=O)(=O)Nc3ccc(F)c(F)c3)c(Br)cc2N(C)C1=O (stereo not shown) [BC19926] | – | – | < 0.1 | > 10
29 | O=S(=O)(CC1CC1)c1[nH]c(-c2ccccc2)nc1S(=O)(=O)c1ccc(F)cc1 [BC19470] | > 10 | > 10 | – | –
